Target: T1, GJB2 (Gap junction protein beta-2; Connexin 26, Cx26); GFP-GJB2 (Homo sapiens, UniProt P29033)
T1 construct: 7QEQ is printed as human GJB2 for docking only
Experiment: microscale thermophoresis (Monolith NT.[…]), GFP-GJB2 in HEK293T lysate
Format: binding

Kd: 8.52 µM
SMILES: O=C(/C=C/c1ccc(O)c2c1[C@H](C(=O)O[C@H](Cc1ccc(O)c(O)c1)C(=O)O)[C@@H](c1ccc(O)c(O)c1)O2)O[C@H](Cc1ccc(O)c(O)c1)C(=O)O [Salvianolic acid B]
